Source: PMC6339567 (Analytical chemistry, 2018)

Assays:
[1] = tested on: confluent monolayers of primary murine colonic epithelial cells; assay type: in vitro ADME, mouse; conditions: upper bound for all monolayers with TEER >300 Ω cm^2 (n=6)
in vitro = conditions: mouse
[2] = tested on: confluent monolayers of primary murine colonic epithelial cells; conditions: Figure 4A
P-gp = P-gp (Mus musculus, UniProt P21447); assay: in vitro
Sequence of P-gp (P21447 whole entry): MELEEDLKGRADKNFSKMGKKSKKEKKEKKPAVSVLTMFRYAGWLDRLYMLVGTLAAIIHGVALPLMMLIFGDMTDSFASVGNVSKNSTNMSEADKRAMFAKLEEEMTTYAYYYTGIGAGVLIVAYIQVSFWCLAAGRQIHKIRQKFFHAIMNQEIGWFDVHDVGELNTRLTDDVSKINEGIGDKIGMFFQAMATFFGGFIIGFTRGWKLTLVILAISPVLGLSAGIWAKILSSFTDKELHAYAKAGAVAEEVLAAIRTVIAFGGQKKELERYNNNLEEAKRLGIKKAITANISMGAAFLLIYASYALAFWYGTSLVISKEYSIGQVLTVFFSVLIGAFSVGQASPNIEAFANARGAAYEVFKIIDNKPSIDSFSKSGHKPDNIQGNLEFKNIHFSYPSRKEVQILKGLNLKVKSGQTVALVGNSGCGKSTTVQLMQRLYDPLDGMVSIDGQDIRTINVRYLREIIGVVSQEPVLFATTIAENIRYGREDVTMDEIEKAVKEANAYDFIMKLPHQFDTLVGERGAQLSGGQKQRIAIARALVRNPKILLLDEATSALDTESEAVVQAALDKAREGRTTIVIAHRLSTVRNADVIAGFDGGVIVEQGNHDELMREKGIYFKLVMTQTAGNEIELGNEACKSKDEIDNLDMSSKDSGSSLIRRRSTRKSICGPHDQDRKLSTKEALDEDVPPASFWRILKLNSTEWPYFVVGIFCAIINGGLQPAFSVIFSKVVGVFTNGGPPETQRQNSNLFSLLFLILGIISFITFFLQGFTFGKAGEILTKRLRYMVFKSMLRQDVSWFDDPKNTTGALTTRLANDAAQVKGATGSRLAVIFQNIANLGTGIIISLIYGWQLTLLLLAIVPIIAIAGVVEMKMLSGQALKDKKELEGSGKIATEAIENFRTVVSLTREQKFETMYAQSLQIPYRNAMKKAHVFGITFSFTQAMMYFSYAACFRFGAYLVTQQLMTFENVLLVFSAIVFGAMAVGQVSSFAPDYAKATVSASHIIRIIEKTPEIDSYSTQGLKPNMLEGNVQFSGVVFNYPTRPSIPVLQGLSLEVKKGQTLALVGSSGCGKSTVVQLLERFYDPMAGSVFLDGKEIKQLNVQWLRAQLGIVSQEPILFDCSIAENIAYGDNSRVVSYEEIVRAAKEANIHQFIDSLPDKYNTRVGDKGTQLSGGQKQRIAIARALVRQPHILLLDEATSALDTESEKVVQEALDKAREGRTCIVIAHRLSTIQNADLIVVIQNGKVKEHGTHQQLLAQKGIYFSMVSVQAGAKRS

## lucifer yellow [LY]
[1]
  Papp for LY, all monolayers with TEER >300 Ω cm^2: < 0.45 ×10⁻⁶ cm/s

## CC(C)NCC(O)COc1cccc2ccccc12 (stereo not shown) [propranolol]
In vitro
  Papp at 3 h, 10 µM: 9.69 ×10⁻⁶ cm/s
[2]
  permeability across day-5 monolayers (in words): high Papp

## COC(=O)c1ccccc1-c1c2ccc(=N)cc-2oc2cc(N)ccc12 [Rh123, rhodamine 123]
P-gp
  efflux ratio at 2 h, 10 µM: 7
